From US8455460B2, “Cosmetic composition containing one or more compounds of the β-(1,3)-glucuronan or β-(1,3)-glucoglucuronan type” (Greentech, priority 2007, dated 2013) come the findings set out here.

Data set [1] relates to human fibroblasts. The data set can be described thus: transcriptomic study on human fibroblasts cultivated in vitro in the absence or presence of the compounds. It is filed as cell-based. To be noted: cellular renewal. The source says:
The biological activities of β-(1,3)-glucuronan compounds or of a mixture of β-(1,3)-glucoglucuronan compounds were screened by an original method of molecular biology (transcriptomic technique) and then detected by methodologies used conventionally in cosmetology.
This adipokine produced locally in the adipose tissue inhibits the activity of the enzyme lipoprotein lipase (LPL) thus preventing the transfer of fatty acids from the lipoproteins to the adipocytes, thus greatly reducing lipogenesis. At the same time, this adipokine activates the enzyme ATGL (adipose triglyceride lipase), present in the adipocytes, thus greatly increasing lipolysis and the release of fatty acids from the adipocytes.
In fact, the transitory induction (under the control of TFPI2 and of PDGFD) of the metalloproteinases (MMP) and the transitory inhibition (under the control of TFPI2) of HAPLN1, permit transitory, localized destabilization of the stressed site (requiring cicatrization) of the extracellular matrix, mainly by catabolic action on the collagen fibers. […]

The nature of data set [2]: chelation and sequestration of cationic ions, investigated by atomic absorption. To be noted: Na+, Cu+, Cu2+, Ca2+, Mg2+, Zn2+, with stirring, compounds recovered and washed. The data set is classed as physicochemical. An excerpt:
The β-(1,3)-glucuronan compounds or the mixture of β-(1,3)-glucoglucuronan compounds are polyanionic molecules capable of chelating and of sequestering mono- and divalent cationic ions.

The nature of data set [3]: clinical study on human volunteers, daily topical application of cream (cellulite, orange-peel skin). The settings on record: cream containing 3%, daily topical application for 30 days, placebo 27%. It is filed as in vivo. An excerpt:
The orange-peel skin effect is reduced in 53% of the volunteers (against 27% in the group of volunteers treated with a placebo).

The subject of data set [4] is adipocytes. The data set is described as follows: in-vitro study on adipocytes: density of fatty acids stored as triglycerides in the lipid vacuoles. It is filed as cell-based. To be noted: concentration of 0.5%.

Turning to “β-(1,3)-D-polyglucuronic acid [β-(1,3)-glucuronan compound]”, in data set [1], the “expression of TFPI2” value was “overexpressed” and the “expression of the genes EGR1, PTGS2, PDGFD, NPTX1” value was “overexpression”. Moreover, in data set [2], the “chelating and sequestering of mono- and divalent cationic ions” value is “chelate and sequester”. In data set [3], the “volunteers in whom the orange-peel skin effect is reduced” value was found to be 53%. For the same substance, the “decrease in the density of fatty acids stored in the form of triglycerides in the lipid vacuoles of the adipocytes” value in data set [4] was roughly 25%.
